Laboratory results: the NIST ThermoML archive (doi:10.1021/je060271a)
“And” between values parts separate entries of the source, which are not always exact repeats. Identical values can stand only once. ± gives the expanded uncertainty stated by the source.

Conditions: 283.15 K, Liquid, Vibrating tube method

CCCCCC(=O)OCC(COC(=O)CCCCC)(COC(=O)CCCCC)COC(=O)CCCCC [pentaerythritol tetrahexanoate]
Conditions	mass density
9284.9 kPa	1009.6 ± 1.2 kg/m3
9306.2 kPa	1009.5 ± 1.2 kg/m3
9324.2 kPa	1009.5 ± 1.2 kg/m3
9341.7 kPa	1009.5 ± 1.2 kg/m3
9359.5 kPa	1009.5 ± 1.2 kg/m3
9380.7 kPa	1009.4 ± 1.2 kg/m3
9398.1 kPa	1009.6 ± 1.2 kg/m3
9416 kPa	1009.6 ± 1.2 kg/m3
9436.7 kPa	1009.6 ± 1.2 kg/m3
9454.6 kPa	1009.6 ± 1.2 kg/m3
9473 kPa	1009.6 ± 1.2 kg/m3
9490.6 kPa	1009.6 ± 1.2 kg/m3
9508.2 kPa	1009.7 ± 1.2 kg/m3
9529 kPa	1009.7 ± 1.2 kg/m3
9546.3 kPa	1009.7 ± 1.2 kg/m3
9563.7 kPa	1009.7 ± 1.2 kg/m3
9585 kPa	1009.7 ± 1.2 kg/m3
9602.4 kPa	1009.6 ± 1.2 kg/m3
9623.6 kPa	1009.7 ± 1.2 kg/m3
9642.2 kPa	1009.7 ± 1.2 kg/m3
9660.2 kPa	1009.7 ± 1.2 kg/m3
9681 kPa	1009.8 ± 1.2 kg/m3
9690.2 kPa	1009.7 ± 1.2 kg/m3
9690.5 kPa	1009.7 ± 1.2 kg/m3
9691 kPa	1009.8 ± 1.2 kg/m3
9691.2 kPa	1009.9 ± 1.2 kg/m3
9691.4 kPa	1009.8 ± 1.2 kg/m3
9691.5 kPa	1009.7 ± 1.2 kg/m3
9691.6 kPa	1009.8 ± 1.2 kg/m3
9691.9 kPa	1009.7 ± 1.2 kg/m3
9692 kPa	1009.8 ± 1.2 kg/m3
9692.1 kPa	1009.6 ± 1.2 kg/m3
9692.4 kPa	1009.7 ± 1.2 kg/m3
9692.6 kPa	1009.8 ± 1.2 kg/m3
9692.8 kPa	1009.7 ± 1.2 kg/m3
9693.3 kPa	1009.8 ± 1.2 kg/m3
9693.4 kPa	1009.8 ± 1.2 kg/m3
9693.8 kPa	1009.8 ± 1.2 kg/m3
9693.9 kPa	1009.8 ± 1.2 kg/m3
9694.3 kPa	1009.8 ± 1.2 kg/m3
9694.5 kPa	1009.8 ± 1.2 kg/m3
9695 kPa	1009.8 ± 1.2 kg/m3
9695.1 kPa	1009.9 ± 1.2 kg/m3
9695.3 kPa	1009.9 ± 1.2 kg/m3
9695.7 kPa	1009.7 ± 1.2 kg/m3 and 1009.8 ± 1.2 kg/m3
9695.8 kPa	1009.9 ± 1.2 kg/m3
9696.2 kPa	1009.8 ± 1.2 kg/m3
9696.4 kPa	1009.8 ± 1.2 kg/m3
9696.5 kPa	1009.8 ± 1.2 kg/m3
9696.7 kPa	1009.8 ± 1.2 kg/m3
9696.9 kPa	1009.8 ± 1.2 kg/m3
9697.2 kPa	1009.8 ± 1.2 kg/m3
9697.6 kPa	1009.8 ± 1.2 kg/m3
9698.1 kPa	1009.5 ± 1.2 kg/m3 and 1009.8 ± 1.2 kg/m3
9698.2 kPa	1009.8 ± 1.2 kg/m3
9698.3 kPa	1009.9 ± 1.2 kg/m3
9698.9 kPa	1009.7 ± 1.2 kg/m3
9699 kPa	1009.7 ± 1.2 kg/m3
9699.1 kPa	1009.7 ± 1.2 kg/m3
9699.3 kPa	1009.7 ± 1.2 kg/m3
9699.6 kPa	1009.7 ± 1.2 kg/m3
9699.8 kPa	1009.7 ± 1.2 kg/m3 and 1009.9 ± 1.2 kg/m3
9700 kPa	1009.8 ± 1.2 kg/m3 and 1009.6 ± 1.2 kg/m3
9700.1 kPa	1009.8 ± 1.2 kg/m3 and 1009.7 ± 1.2 kg/m3
9700.3 kPa	1009.7 ± 1.2 kg/m3 and 1009.8 ± 1.2 kg/m3
9700.7 kPa	1009.7 ± 1.2 kg/m3
9700.8 kPa	1009.7 ± 1.2 kg/m3
9701 kPa	1009.7 ± 1.2 kg/m3
9701.5 kPa	1009.8 ± 1.2 kg/m3 and 1009.7 ± 1.2 kg/m3
9701.7 kPa	1009.8 ± 1.2 kg/m3
9754.8 kPa	1009.8 ± 1.2 kg/m3
9769.2 kPa	1009.7 ± 1.2 kg/m3
9783.6 kPa	1009.8 ± 1.2 kg/m3
9797.3 kPa	1009.7 ± 1.2 kg/m3
9814.5 kPa	1009.7 ± 1.2 kg/m3
9828.7 kPa	1009.8 ± 1.2 kg/m3
9845.7 kPa	1009.7 ± 1.2 kg/m3
9859.7 kPa	1009.8 ± 1.2 kg/m3
9874.3 kPa	1009.8 ± 1.2 kg/m3
9888.8 kPa	1009.8 ± 1.2 kg/m3
9905.8 kPa	1009.8 ± 1.2 kg/m3
9919.9 kPa	1009.9 ± 1.2 kg/m3
9934.6 kPa	1009.9 ± 1.2 kg/m3
9951.8 kPa	1009.9 ± 1.2 kg/m3
9966.6 kPa	1009.9 ± 1.2 kg/m3
9984 kPa	1009.8 ± 1.2 kg/m3
9998.7 kPa	1009.8 ± 1.2 kg/m3
10013 kPa	1009.9 ± 1.2 kg/m3
10027 kPa	1010 ± 1.2 kg/m3
10045 kPa	1009.8 ± 1.2 kg/m3
10060 kPa	1009.9 ± 1.2 kg/m3
10074 kPa	1009.9 ± 1.2 kg/m3
10091 kPa	1010 ± 1.2 kg/m3
10106 kPa	1010 ± 1.2 kg/m3
10120 kPa	1009.9 ± 1.2 kg/m3
10135 kPa	1009.9 ± 1.2 kg/m3
10152 kPa	1010 ± 1.2 kg/m3
10166 kPa	1010 ± 1.2 kg/m3
10181 kPa	1010 ± 1.2 kg/m3
10195 kPa	1010 ± 1.2 kg/m3
10212 kPa	1010.1 ± 1.2 kg/m3
10226 kPa	1010.1 ± 1.2 kg/m3
10244 kPa	1010 ± 1.2 kg/m3
10258 kPa	1010 ± 1.2 kg/m3
10273 kPa	1010 ± 1.2 kg/m3
10288 kPa	1009.9 ± 1.2 kg/m3
10305 kPa	1010.1 ± 1.2 kg/m3
10320 kPa	1010 ± 1.2 kg/m3
10334 kPa	1010.1 ± 1.2 kg/m3
10352 kPa	1010.1 ± 1.2 kg/m3
10367 kPa	1010.2 ± 1.2 kg/m3
10382 kPa	1010.1 ± 1.2 kg/m3
10400 kPa	1010.1 ± 1.2 kg/m3
10415 kPa	1010.2 ± 1.2 kg/m3
10430 kPa	1010.1 ± 1.2 kg/m3
10445 kPa	1010.1 ± 1.2 kg/m3
10463 kPa	1010.2 ± 1.2 kg/m3
10478 kPa	1010.2 ± 1.2 kg/m3
10496 kPa	1010.1 ± 1.2 kg/m3
10511 kPa	1010.2 ± 1.2 kg/m3
10526 kPa	1010.1 ± 1.2 kg/m3
10541 kPa	1010.3 ± 1.2 kg/m3
10559 kPa	1010.2 ± 1.2 kg/m3
10575 kPa	1010.3 ± 1.2 kg/m3
10590 kPa	1010.2 ± 1.2 kg/m3
10608 kPa	1010.2 ± 1.2 kg/m3
10622 kPa	1010.3 ± 1.2 kg/m3
10638 kPa	1010.2 ± 1.2 kg/m3
10656 kPa	1010.3 ± 1.2 kg/m3
10671 kPa	1010.4 ± 1.2 kg/m3
10686 kPa	1010.3 ± 1.2 kg/m3
10704 kPa	1010.4 ± 1.2 kg/m3
10719 kPa	1010.2 ± 1.2 kg/m3
10733 kPa	1010.3 ± 1.2 kg/m3
10749 kPa	1010.2 ± 1.2 kg/m3
10766 kPa	1010.3 ± 1.2 kg/m3
10780 kPa	1010.3 ± 1.2 kg/m3
10798 kPa	1010.3 ± 1.2 kg/m3
10812 kPa	1010.4 ± 1.2 kg/m3
10826 kPa	1010.4 ± 1.2 kg/m3
10840 kPa	1010.4 ± 1.2 kg/m3
10858 kPa	1010.4 ± 1.2 kg/m3
10872 kPa	1010.3 ± 1.2 kg/m3
10887 kPa	1010.4 ± 1.2 kg/m3
10904 kPa	1010.4 ± 1.2 kg/m3
